Where two headings read alike, the source gives them in different places.
Tests used:
[1] = system: UPCI-SCC-131 cells; assay: MTT antiproliferative assay, UPCI-SCC-131; type: cell-based, human; details: for IC50: read-out: calculated IC50 value
Description: (§1) The antiproliferative properties of the newly synthesized compounds (9–20) and their starting materials (4 and 5) were determined on a panel of human adherent cancer cell lines. MCF-7, MDA-MB-231 and T47D were isolated from breast cancers differing in biochemical background, while A2780 cells were isolated from ovarian cancer. HeLa and SiHa are cervical cancer cell lines positive for HPV-18 and HPV-16, respectively, while C33-A cervical cancer cells are negative for HPV. Moreover, two oropharyngeal cancer cell lines were also utilized: the HPV-negative UPCI-SCC-131 and HPV-16 positive UPCI-SCC-154. The cancer selectivity of compounds was tested on the non-cancerous mouse embryo fibroblast cell line NIH/3T3. All cell lines were purchased from European Collection of Cell Cultures (ECCAC, Salisbury, UK) exception for SiHa and C33-A (American Tissue Culture Collection, Manassas, VA, USA) and HN-SCC-131 and UPCI-SCC-154 (German Collection of Microorganisms and Cell Cultures GmbH, Braunschweig, Germany). Cells were cultivated in minimal essential medium supplemented with 10% fetal bovine serum, 1% non-essential amino acids and an antibiotic–antimycotic mixture. The medium of oropharyngeal cancer cells additionally contained 2.0 mM L-glutamine. All media and supplements were obtained from Lonza Group Ltd., Basel, Switzerland. Near-confluent cancer cells were seeded onto a 96-well microplate at a density of 5,000 cells/well, except for C33-A which were seeded at 10,000/well. After overnight standing, new medium containing the tested compounds at 10 and 30 µM final concentration was added. After incubation for 72 h at 37 °C in humidified air containing 5% CO2, the living cells were assayed by the addition of 20 μL of 5 mg/ml 3-(4,5-dimethylthiazol-2-yl)-2,5-diphenyltetrazolium bromide (MTT) solution. MTT was converted by intact mitochondrial reductase and precipitated as purple crystals during a 4-h contact period. The medium was next removed and the precipitated formazan crystals were dissolved in 100 μL of DMSO during a 60-min period of shaking at 37 ^оC.
(§2) All in vitro experiments were carried out twice with five parallels. Stock solutions of the tested substances (10 mM) were prepared in DMSO. […] Cisplatin (Ebewe Pharma GmbH, Unterach, Austria) was used as positive control.

[2] = system: UPCI-SCC-154 cells; assay: MTT antiproliferative assay, UPCI-SCC-154; type: cell-based, human; details: for IC50: read-out: calculated IC50 value
Description: as §1, §2

[3] = system: HeLa cells; assay: MTT antiproliferative assay, HeLa; type: cell-based, human; details: 72 h; for IC50: read-out: calculated IC50 value
Description: as §1, §2

[4] = system: SiHa cells; assay: MTT antiproliferative assay, SiHa; type: cell-based, human; details: 72 h; for IC50: read-out: calculated IC50 value
Description: as §1, §2

[5] = system: C33-A cells; assay: MTT antiproliferative assay, C33-A; type: cell-based, human; details: 72 h; for IC50: read-out: calculated IC50 value
Description: as §1, §2

[6] = system: A2780 cells; assay: MTT antiproliferative assay, A2780; type: cell-based, human; details: for IC50: read-out: calculated IC50 value
Description: as §1, §2

[7] = system: MCF-7 cells; assay: MTT antiproliferative assay, MCF-7; type: cell-based, human; details: for IC50: read-out: calculated IC50 value
Description: as §1, §2

[8] = system: MDA-MB-231 cells; assay: MTT antiproliferative assay, MDA-MB-231; type: cell-based, human; details: for Growth inhibition; % ± SEM: 72 h; for IC50: read-out: calculated IC50 value
Description: as §1, §2

[9] = system: T47D cells; assay: MTT antiproliferative assay, T47D; type: cell-based, human; details: 72 h; for IC50: read-out: calculated IC50 value
Description: as §1, §2

[10] = system: non-cancerous mouse embryo fibroblast (NIH/3T3) cells; assay: MTT assay on non-cancerous fibroblasts (tumour selectivity); type: cell-based; details: for Growth inhibition; % ± SEM: 72 h; for IC50: read-out: calculated IC50 value
Description: as §1, §2

[11] = Homo sapiens, read-out: Growth inhibition, % ± SEM, 10 μM
[12] = Homo sapiens, read-out: Growth inhibition, % ± SEM, 30 μM
[13] = Homo sapiens, MDA-MB-231, 72 h, read-out: Growth inhibition, % ± SEM
[14] = Mus musculus, NIH3T3, 72 h, read-out: Growth inhibition, % ± SEM

`N.N.[Cl][Pt][Cl]` [CIS, Cisplatin, reference compound] was tested, and the “Growth inhibition; % ± SEM” value ([1]; UPCI-SCC-131, 10 μM, 72 h) was 95.63 ± 1.49%, the “Growth inhibition; % ± SEM” value ([1]; UPCI-SCC-131, 30 μM, 72 h) was 95.09 ± 1.57% and the IC50 ([1]; UPCI-SCC-131, 72 h) was 1.22 µM. The “Growth inhibition; % ± SEM” value ([2]; UPCI-SCC-154, 10 μM, 72 h) was 87.40 ± 1.72%, the “Growth inhibition; % ± SEM” value ([2]; UPCI-SCC-154, 30 μM, 72 h) was 92.72 ± 1.67% and the IC50 ([2]; UPCI-SCC-154, 72 h) was 1.29 µM. For the same compound, the “Growth inhibition; % ± SEM” value ([3]; 10 μM) was 42.61 ± 2.33%, the “Growth inhibition; % ± SEM” value ([3]; 30 μM) was 99.93 ± 0.26% and the IC50 [3] was 12.4 µM. For the same compound, the “Growth inhibition; % ± SEM” value ([4]; 10 μM) was 88.64 ± 0.50%, the “Growth inhibition; % ± SEM” value ([4]; 30 μM) was 90.18 ± 1.78% and the IC50 [4] was 7.84 µM. The “Growth inhibition; % ± SEM” value ([5]; C33-A, 10 μM) was 85.98 ± 1.05%, the “Growth inhibition; % ± SEM” value ([5]; C33-A, 30 μM) was 98.66 ± 0.21% and the IC50 ([5]; C33-A) was 4.13 µM. The “Growth inhibition; % ± SEM” value ([6]; A2780, 10 μM, 72 h) was 83.6 ± 1.2%, the “Growth inhibition; % ± SEM” value ([6]; A2780, 30 μM, 72 h) was 95.0 ± 0.3% and the IC50 ([6]; A2780, 72 h) was 1.3 µM. For the same compound, the “Growth inhibition; % ± SEM” value ([7]; MCF-7, 10 μM, 72 h) was 66.91 ± 1.81%, the “Growth inhibition; % ± SEM” value ([7]; MCF-7, 30 μM, 72 h) was 96.80 ± 0.35% and the IC50 ([7]; MCF-7, 72 h) was 5.78 µM. The “Growth inhibition; % ± SEM” value ([8]; MDA-MB-231, 10 μM) was “– (Inhibition values <20% are not presented.)”, the “Growth inhibition; % ± SEM” value ([8]; MDA-MB-231, 30 μM) was 71.47 ± 1.20% and the IC50 ([8]; MDA-MB-231, 72 h) was 19.1 µM. The “Growth inhibition; % ± SEM” value ([9]; 10 μM) was 40.41 ± 1.25%, the “Growth inhibition; % ± SEM” value ([9]; 30 μM) was 56.84 ± 1.16% and the IC50 [9] was 19.2 µM. For the same compound, the “Growth inhibition; % ± SEM” value ([10]; NIH/3T3, 10 μM) was 76.74 ± 1.26%, the “Growth inhibition; % ± SEM” value ([10]; NIH/3T3, 30 μM) was 96.90 ± 0.25% and the IC50 ([10]; NIH/3T3, 72 h) was 4.73 µM.
`COc1ccc2c(c1)CC[C@@H]1[C@@H]2CC[C@@]2(C)C(=O)[C@H](CP(=O)(c3ccccc3)c3ccccc3)C[C@@H]12` [Compound 9, [(3-methoxy-17-oxo-13α-oestra-1,3,5(10)-trien-16α-yl)methyl]diphenylphosphine oxide] was tested, and the inhibition at 10 µM ([1]; Homo sapiens, 72 h, read-out: Growth inhibition, % ± SEM, UPCI-SCC-131, 10 μM, 72 h) was 63.4 ± 1.41%, the inhibition at 30 µM ([1]; Homo sapiens, 72 h, read-out: Growth inhibition, % ± SEM, UPCI-SCC-131, 30 μM, 72 h) was 99.35 ± 0.27% and the IC50 ([1]; Homo sapiens, 72 h) was 5.3 µM. The inhibition at 10 µM ([2]; Homo sapiens, 72 h, read-out: Growth inhibition, % ± SEM, UPCI-SCC-154, 10 μM, 72 h) was < 20%, the inhibition at 30 µM ([2]; Homo sapiens, 72 h, read-out: Growth inhibition, % ± SEM, UPCI-SCC-154, 30 μM, 72 h) was 99.8 ± 1.48% and the IC50 ([2]; Homo sapiens, 72 h) was 13.5 µM. The inhibition at 10 µM [3, 11] was < 20%, the inhibition at 30 µM [3, 12] was 97.59 ± 0.73% and the IC50 ([3]; Homo sapiens) was 12.9 µM. The inhibition at 10 µM [4, 11] was < 20%, the inhibition at 30 µM [4, 12] was 96.5 ± 1.24% and the IC50 ([4]; Homo sapiens) was 13.8 µM. The inhibition at 10 µM ([5]; Homo sapiens, C-33-A, read-out: Growth inhibition, % ± SEM, C33-A, 10 μM) was < 20%, the inhibition at 30 µM ([5]; Homo sapiens, C-33-A, read-out: Growth inhibition, % ± SEM, C33-A, 30 μM) was 97.85 ± 0.32% and the IC50 ([5]; Homo sapiens, C-33-A) was 13.3 µM. The inhibition at 10 µM ([6]; Homo sapiens, A2780, 72 h, read-out: Growth inhibition, % ± SEM, A2780, 10 μM, 72 h) was 47.2 ± 2.75%, the inhibition at 30 µM ([6]; Homo sapiens, A2780, 72 h, read-out: Growth inhibition, % ± SEM, A2780, 30 μM, 72 h) was 98.99 ± 0.41% and the IC50 ([6]; Homo sapiens, A2780, 72 h) was 11.7 µM. It also gave an inhibition at 10 µM ([7]; Homo sapiens, MCF7, 72 h, read-out: Growth inhibition, % ± SEM, MCF-7, 10 μM, 72 h) of 21.3 ± 2.79%, an inhibition at 30 µM ([7]; Homo sapiens, MCF7, 72 h, read-out: Growth inhibition, % ± SEM, MCF-7, 30 μM, 72 h) of 93.1 ± 1.6% and an IC50 ([7]; Homo sapiens, MCF7, 72 h) of 13.7 µM. The inhibition at 10 µM [8, 13] was < 20%, the inhibition at 30 µM [8, 13] was 99.03 ± 0.73% and the IC50 ([8]; Homo sapiens, MDA-MB-231, 72 h) was 23.5 µM. For the same compound, the inhibition at 10 µM [9, 11] was 57.5 ± 3.15%, the inhibition at 30 µM [9, 12] was 93.77 ± 0.55% and the IC50 ([9]; Homo sapiens) was 7.2 µM. The inhibition at 10 µM [10, 14] was < 20%, the inhibition at 30 µM [10, 14] was 96.55 ± 0.86% and the IC50 ([10]; Mus musculus, NIH3T3, 72 h) was 20.4 µM. For the same compound, the “Tumour selectivity: IC50 on NIH/3T3 relative to IC50 on UPCI-SCC-131” value ([10]; NIH/3T3 vs UPCI-SCC-131) was “four times higher”.
In the case of `CC12CCC3c4ccc(OCc5ccccc5)cc4CCC3C1CC(CP(=O)(c1ccc3ccccc3c1)c1ccc3ccccc3c1)C2=O` (stereo not drawn) [Compound 20, [(3-benzyloxy-17-oxo-13α-oestra-1,3,5(10)-trien-16β-yl)methyl]di(naphtalen-2-yl)phosphine oxide], the “Growth inhibition; % ± SEM” value ([1]; UPCI-SCC-131, 10 μM, 72 h, 10 µM) is reported as 48.25 ± 1.46%, the “Growth inhibition; % ± SEM” value ([1]; UPCI-SCC-131, 30 μM, 72 h, 30 µM) is reported as 61.12 ± 1.32% and the “Growth inhibition; % ± SEM” value ([2]; UPCI-SCC-154, 10 μM, 72 h, 10 µM) is reported as 30.97 ± 2.54%. For the same compound, the “Growth inhibition; % ± SEM” value ([2]; UPCI-SCC-154, 30 μM, 72 h, 30 µM) was 28.72 ± 1.11%, the “Growth inhibition; % ± SEM” value ([3]; 10 μM) was “– (Inhibition values <20% are not presented.)” and the “Growth inhibition; % ± SEM” value ([3]; 30 μM) was “– (Inhibition values <20% are not presented.)”. The “Growth inhibition; % ± SEM” value ([4]; 10 μM) was “– (Inhibition values <20% are not presented.)”, the “Growth inhibition; % ± SEM” value ([4]; 30 μM) was “– (Inhibition values <20% are not presented.)” and the “Growth inhibition; % ± SEM” value ([5]; C33-A, 10 μM) was 27.94 ± 0.89%. The “Growth inhibition; % ± SEM” value ([5]; C33-A, 30 μM) was 26.53 ± 1.06%, the “Growth inhibition; % ± SEM” value ([6]; A2780, 10 μM, 72 h) was “– (Inhibition values <20% are not presented.)” and the “Growth inhibition; % ± SEM” value ([6]; A2780, 30 μM, 72 h, 30 µM) was “– (Inhibition values <20% are not presented.)”. The “Growth inhibition; % ± SEM” value ([7]; MCF-7, 10 μM, 72 h, 10 µM) was 28.24 ± 1.66%, the “Growth inhibition; % ± SEM” value ([7]; MCF-7, 30 μM, 72 h, 30 µM) was 22.21 ± 2.78% and the “Growth inhibition; % ± SEM” value ([8]; MDA-MB-231, 10 μM) was “– (Inhibition values <20% are not presented.)”. For the same compound, the “Growth inhibition; % ± SEM” value ([8]; MDA-MB-231, 30 μM) was “– (Inhibition values <20% are not presented.)”, the “Growth inhibition; % ± SEM” value ([9]; 10 μM) was 66.09 ± 0.76% and the “Growth inhibition; % ± SEM” value ([9]; 30 μM) was 68.56 ± 1.81%.
